Source: PubChem BioAssay (NCI)
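Following 48 hours of exposure in 96-well plates, responses at five concentrations were used to interpolate endpoints linearly. GI50 = concentration required for 50% inhibition of growth. TGI denotes the concentration required for complete inhibition of growth.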

Experiments:
Test in all cases: NCI-60 cell line screen, 48 h
U251 CNS = system: U251 CNS
OVCAR-3 ovarian = system: OVCAR-3 ovarian
T-47D breast = system: T-47D breast
HS 578T breast = system: HS 578T breast
NCI/ADR-RES ovarian = system: NCI/ADR-RES ovarian
OVCAR-4 ovarian = system: OVCAR-4 ovarian
SF-539 CNS = system: SF-539 CNS
CCRF-CEM leukemia = system: CCRF-CEM leukemia
MDA-MB-435 = system: MDA-MB-435
SK-OV-3 ovarian = system: SK-OV-3 ovarian
BT-549 breast = system: BT-549 breast
SNB-19 CNS = system: SNB-19 CNS
TK-10 renal = system: TK-10 renal
OVCAR-5 ovarian = system: OVCAR-5 ovarian
SNB-75 CNS = system: SNB-75 CNS
SK-MEL-28 melanoma = system: SK-MEL-28 melanoma
A498 renal = system: A498 renal
SF-295 CNS = system: SF-295 CNS
786-0 renal = system: 786-0 renal
RPMI-8226 leukemia = system: RPMI-8226 leukemia
UACC-257 melanoma = system: UACC-257 melanoma
CAKI-1 renal = system: CAKI-1 renal
SN12C renal = system: SN12C renal
MDA-MB-468 breast = system: MDA-MB-468 breast
HOP-62 NSCLC = system: HOP-62 NSCLC
HCT-15 colon = system: HCT-15 colon
HL-60(TB) leukemia = system: HL-60(TB) leukemia
HCT-116 colon = system: HCT-116 colon
UACC-62 melanoma = system: UACC-62 melanoma
HCC-2998 colon = system: HCC-2998 colon
OVCAR-8 ovarian = system: OVCAR-8 ovarian
NCI-H460 lung = system: NCI-H460 lung
UO-31 renal = system: UO-31 renal
M14 melanoma = system: M14 melanoma
NCI-H23 lung = system: NCI-H23 lung
ACHN renal = system: ACHN renal
SW-620 colon = system: SW-620 colon
MALME-3M melanoma = system: MALME-3M melanoma
HOP-92 NSCLC = system: HOP-92 NSCLC
RXF 393 renal = system: RXF 393 renal
SF-268 CNS = system: SF-268 CNS
SK-MEL-5 melanoma = system: SK-MEL-5 melanoma
LOX IMVI melanoma = system: LOX IMVI melanoma
COLO 205 colon = system: COLO 205 colon
MDA-MB-231 breast = system: MDA-MB-231 breast
IGROV1 ovarian = system: IGROV1 ovarian
NCI-H522 lung = system: NCI-H522 lung
A549 NSCLC = system: A549 NSCLC
SR leukemia = system: SR leukemia
PC-3 prostate = system: PC-3 prostate
KM12 colon = system: KM12 colon
HT29 colon = system: HT29 colon
EKVX NSCLC = system: EKVX NSCLC
K-562 leukemia = system: K-562 leukemia
SK-MEL-2 melanoma = system: SK-MEL-2 melanoma
MOLT-4 leukemia = system: MOLT-4 leukemia
NCI-H226 lung = system: NCI-H226 lung
MCF7 breast = system: MCF7 breast
DU-145 prostate = system: DU-145 prostate

SMILES: COc1cccc(/C=C/c2nc3ccccc3c(=O)n2CC(=O)Nc2ccccc2)c1
- GI50 (U251 CNS): 4.87 µM
- TGI (U251 CNS): 19 µM
- GI50 (OVCAR-3 ovarian): 17.6 µM
- TGI (OVCAR-3 ovarian): > 100 µM
- GI50 (T-47D breast): 2760 nM
- TGI (T-47D breast): 18.6 µM
- GI50 (HS 578T breast): 5.91 µM
- TGI (HS 578T breast): > 100 µM
- GI50 (NCI/ADR-RES ovarian): 7.72 µM
- TGI (NCI/ADR-RES ovarian): 64.9 µM
- GI50 (OVCAR-4 ovarian): 6.87 µM
- TGI (OVCAR-4 ovarian): > 100 µM
- GI50 (SF-539 CNS): 7.51 µM
- TGI (SF-539 CNS): 28.5 µM
- GI50 (CCRF-CEM leukemia): > 100 µM
- TGI (CCRF-CEM leukemia): > 100 µM
- GI50 (MDA-MB-435): > 100 µM
- TGI (MDA-MB-435): > 100 µM
- GI50 (SK-OV-3 ovarian): 5.87 µM
- TGI (SK-OV-3 ovarian): 40.9 µM
- GI50 (BT-549 breast): > 100 µM
- TGI (BT-549 breast): > 100 µM
- GI50 (SNB-19 CNS): 21.7 µM
- TGI (SNB-19 CNS): > 100 µM
- GI50 (TK-10 renal): 9.51 µM
- TGI (TK-10 renal): 30 µM
- GI50 (OVCAR-5 ovarian): 19.3 µM
- TGI (OVCAR-5 ovarian): > 100 µM
- GI50 (SNB-75 CNS): 3.15 µM
- TGI (SNB-75 CNS): 18.1 µM
- GI50 (SK-MEL-28 melanoma): 61.4 µM
- TGI (SK-MEL-28 melanoma): > 100 µM
- GI50 (A498 renal): 3.2 µM
- TGI (A498 renal): 14.5 µM
- GI50 (SF-295 CNS): 5.23 µM
- TGI (SF-295 CNS): 28.6 µM
- GI50 (786-0 renal): 3.08 µM
- TGI (786-0 renal): 12.6 µM
- GI50 (RPMI-8226 leukemia): > 100 µM
- TGI (RPMI-8226 leukemia): > 100 µM
- GI50 (UACC-257 melanoma): > 100 µM
- TGI (UACC-257 melanoma): > 100 µM
- GI50 (CAKI-1 renal): 4.31 µM
- TGI (CAKI-1 renal): 30.1 µM
- GI50 (SN12C renal): 6.58 µM
- TGI (SN12C renal): > 100 µM
- GI50 (MDA-MB-468 breast): 9.17 µM
- TGI (MDA-MB-468 breast): > 100 µM
- GI50 (HOP-62 NSCLC): 3.89 µM
- TGI (HOP-62 NSCLC): 14.4 µM
- GI50 (HCT-15 colon): 39.9 µM
- TGI (HCT-15 colon): > 100 µM
- GI50 (HL-60(TB) leukemia): > 100 µM
- TGI (HL-60(TB) leukemia): > 100 µM
- GI50 (HCT-116 colon): 5.48 µM
- TGI (HCT-116 colon): 56 µM
- GI50 (UACC-62 melanoma): 88.5 µM
- TGI (UACC-62 melanoma): > 100 µM
- GI50 (HCC-2998 colon): > 100 µM
- TGI (HCC-2998 colon): > 100 µM
- GI50 (OVCAR-8 ovarian): 18.8 µM
- TGI (OVCAR-8 ovarian): > 100 µM
- GI50 (NCI-H460 lung): 12.6 µM
- TGI (NCI-H460 lung): > 100 µM
- GI50 (UO-31 renal): 2890 nM
- TGI (UO-31 renal): 14.1 µM
- GI50 (M14 melanoma): 12.5 µM
- TGI (M14 melanoma): 56.6 µM
- GI50 (NCI-H23 lung): 8.91 µM
- TGI (NCI-H23 lung): 49.3 µM
- GI50 (ACHN renal): 3.47 µM
- TGI (ACHN renal): 12.5 µM
- GI50 (SW-620 colon): > 100 µM
- TGI (SW-620 colon): > 100 µM
- GI50 (MALME-3M melanoma): 12.1 µM
- TGI (MALME-3M melanoma): 65.7 µM
- GI50 (HOP-92 NSCLC): 11 µM
- TGI (HOP-92 NSCLC): 51.3 µM
- GI50 (RXF 393 renal): 4.23 µM
- TGI (RXF 393 renal): 50.9 µM
- GI50 (SF-268 CNS): 36.8 µM
- TGI (SF-268 CNS): > 100 µM
- GI50 (SK-MEL-5 melanoma): 59.3 µM
- TGI (SK-MEL-5 melanoma): > 100 µM
- GI50 (LOX IMVI melanoma): 5.94 µM
- TGI (LOX IMVI melanoma): > 100 µM
- GI50 (COLO 205 colon): > 100 µM
- TGI (COLO 205 colon): > 100 µM
- GI50 (MDA-MB-231 breast): 5.97 µM
- TGI (MDA-MB-231 breast): 20.7 µM
- GI50 (IGROV1 ovarian): 39.1 µM
- TGI (IGROV1 ovarian): > 100 µM
- GI50 (NCI-H522 lung): 31.6 µM
- TGI (NCI-H522 lung): > 100 µM
- GI50 (A549 NSCLC): 3.81 µM
- TGI (A549 NSCLC): > 100 µM
- GI50 (SR leukemia): > 100 µM
- TGI (SR leukemia): > 100 µM
- GI50 (PC-3 prostate): > 100 µM
- TGI (PC-3 prostate): > 100 µM
- GI50 (KM12 colon): > 100 µM
- TGI (KM12 colon): > 100 µM
- GI50 (HT29 colon): > 100 µM
- TGI (HT29 colon): > 100 µM
- GI50 (EKVX NSCLC): > 100 µM
- TGI (EKVX NSCLC): > 100 µM
- GI50 (K-562 leukemia): > 100 µM
- TGI (K-562 leukemia): > 100 µM
- GI50 (SK-MEL-2 melanoma): > 100 µM
- TGI (SK-MEL-2 melanoma): > 100 µM
- GI50 (MOLT-4 leukemia): > 100 µM
- TGI (MOLT-4 leukemia): > 100 µM
- GI50 (NCI-H226 lung): 3.22 µM
- TGI (NCI-H226 lung): 15.2 µM
- GI50 (MCF7 breast): 27 µM
- TGI (MCF7 breast): > 100 µM
- GI50 (DU-145 prostate): > 100 µM
- TGI (DU-145 prostate): > 100 µM
